# Experiment: CHX and PLS release into storage solution
# Assay type: physicochemical
# Settings: in water over a period of 6 weeks
# Description: CHX and PLS release into sample storage solutions were quantified using UV spectrometry (Mehdawi 2009, Zhao 2011) and HPLC respectively.
# Reactive filler composites containing PLS were prepared as 1 mm thick composite discs. The fluid phase contained 70% UDMA, 25% TEG-DMA, 5% HEMA, 300 ppm BHT, DMPT 0.5%, BP 0.5%. 25 wt % of this fluid phase was combined with 75 wt % powder filler. The filler contained polylysine (1 or 10 wt %), chlorhexidine (0 or 10 wt %), MCPM/TCP (CaP=10 or 20 wt %) and the remainder glass particles (Sci Pharm).
substance,measurement,value
ε-poly-L-lysine [PLS],percentage released from 1 mm thick composite discs,over 70%
